Paper PMC8570541, “Real-time observation of tetrapyrrole binding to an engineered bacterial phytochrome” (Communications Chemistry, 2021)

Tests used:
miRFP670 = molecular target: T1, miRFP670 (Rhodopseudomonas palustris, UniProt A0A161I5N6, D200T/I252C, form not given); experiment: time-resolved absorption and stimulated Raman spectroscopy, SDS-PAGE; assay type: binding; settings: covalent; Cys253 GAF thioether, then a second thioether to Cys20 PAS; pH 8.0, 20 mM Tris-HCl, 150 mM NaCl, DTT
T1 construct: engineered monomeric PAS-GAF fragment derived from RpBphP1; Cys20 (PAS) and Cys253 (GAF); about 35 kDa; N-terminal polyhistidine tag; apoprotein expressed in E. coli LMG194 without heme oxygenase
T1 sequence (A0A161I5N6 1-314 D200T/I252C limits assumed): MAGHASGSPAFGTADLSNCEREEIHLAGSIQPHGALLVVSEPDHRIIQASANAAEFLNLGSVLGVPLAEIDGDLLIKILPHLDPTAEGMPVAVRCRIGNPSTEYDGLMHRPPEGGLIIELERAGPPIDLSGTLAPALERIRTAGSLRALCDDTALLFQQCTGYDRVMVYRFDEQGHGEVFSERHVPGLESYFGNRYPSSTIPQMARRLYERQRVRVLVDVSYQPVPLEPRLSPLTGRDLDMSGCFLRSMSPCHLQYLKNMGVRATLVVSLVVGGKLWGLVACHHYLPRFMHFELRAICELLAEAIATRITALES

miRFP709 = molecular target: T2, miRFP709 (Rhodopseudomonas palustris, UniProt A0A161I5N6); experiment: time-resolved absorption and stimulated Raman spectroscopy; assay type: binding; settings: covalent; thioether to Cys in PAS; pH 8.0, 20 mM Tris-HCl, 150 mM NaCl, DTT
T2 construct: engineered monomeric PAS-GAF fragment derived from RpBphP1; Cys in PAS only, none in GAF; about 35 kDa; N-terminal polyhistidine tag; apoprotein expressed in E. coli LMG194 without heme oxygenase
T2 sequence (A0A161I5N6 1-314 limits assumed): as the sequence (A0A161I5N6 1-314 D200T/I252C limits assumed) above, with T200D, C252I counted along it
Text: time-resolved absorption and stimulated Raman spectroscopy on miRFP709 | We assign the 18-min reaction to the covalent bond formation to Cys in the PAS

- time constant of C-S bond formation (Cys in GAF) (miRFP670): 4.3 min
- time constant of C-S bond formation (Cys in PAS) (miRFP709): 18 min
SMILES: C=CC1=C(C)C(=Cc2[nH]c(C=C3N=C(C=C4NC(=O)C(C)=C4C=C)C(C)=C3CCC(=O)O)c(CCC(=O)O)c2C)NC1=O [biliverdin]
